Values belong to the compound of their own block, whether it stands above or below them.
Key:
[1] = biological target: Casein kinase I isoform delta (Homo sapiens, UniProt P48730); settings: at 10 µM
[2] = biological target: cAMP-dependent protein kinase catalytic subunit alpha (Homo sapiens, UniProt P17612); settings: at 10 µM
[3] = biological target: Histone-lysine N-methyltransferase KMT5B (Homo sapiens) (UniProt Q4FZB7); settings: at 1 µM
[4] = biological target: Non-receptor tyrosine-protein kinase TYK2 (Homo sapiens, UniProt P29597); experiment: Selectivity interaction (KinomeScan (DiscoverX)) EUB0000695a TYK2; settings: at 100 nM
Sequence of Non-receptor tyrosine-protein kinase TYK2 (P29597 whole entry): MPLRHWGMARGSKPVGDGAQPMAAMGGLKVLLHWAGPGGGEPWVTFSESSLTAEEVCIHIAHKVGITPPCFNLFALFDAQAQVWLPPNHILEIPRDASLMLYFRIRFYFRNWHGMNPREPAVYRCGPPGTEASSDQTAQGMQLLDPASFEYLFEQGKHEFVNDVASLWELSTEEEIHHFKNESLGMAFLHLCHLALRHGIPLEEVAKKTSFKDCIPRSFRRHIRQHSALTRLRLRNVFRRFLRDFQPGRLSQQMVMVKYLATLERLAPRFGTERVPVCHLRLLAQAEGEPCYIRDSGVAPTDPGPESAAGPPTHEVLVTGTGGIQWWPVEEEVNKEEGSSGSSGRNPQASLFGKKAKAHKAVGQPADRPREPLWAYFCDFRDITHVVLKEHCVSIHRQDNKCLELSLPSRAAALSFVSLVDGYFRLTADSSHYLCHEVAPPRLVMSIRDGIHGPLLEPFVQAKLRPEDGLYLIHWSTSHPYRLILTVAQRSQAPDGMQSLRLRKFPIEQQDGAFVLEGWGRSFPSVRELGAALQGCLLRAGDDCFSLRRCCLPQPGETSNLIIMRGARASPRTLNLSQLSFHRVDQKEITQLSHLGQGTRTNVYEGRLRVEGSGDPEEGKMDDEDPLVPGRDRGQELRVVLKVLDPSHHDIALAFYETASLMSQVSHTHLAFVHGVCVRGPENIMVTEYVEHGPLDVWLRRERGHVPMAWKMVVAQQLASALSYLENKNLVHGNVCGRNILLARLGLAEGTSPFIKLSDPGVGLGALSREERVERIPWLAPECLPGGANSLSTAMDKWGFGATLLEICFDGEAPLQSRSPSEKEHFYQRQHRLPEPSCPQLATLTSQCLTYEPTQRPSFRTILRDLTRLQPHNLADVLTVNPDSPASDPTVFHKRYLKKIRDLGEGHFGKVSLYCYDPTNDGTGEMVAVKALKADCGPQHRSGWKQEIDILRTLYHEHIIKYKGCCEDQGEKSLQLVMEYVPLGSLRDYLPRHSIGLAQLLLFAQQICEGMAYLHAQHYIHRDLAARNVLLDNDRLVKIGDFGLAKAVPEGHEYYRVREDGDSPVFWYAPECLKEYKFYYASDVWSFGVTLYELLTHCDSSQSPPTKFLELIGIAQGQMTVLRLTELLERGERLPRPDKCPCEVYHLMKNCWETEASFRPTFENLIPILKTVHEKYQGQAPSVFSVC

[5] = biological target: T1, Gamma-aminobutyric acid receptor subunit alpha-1 (Homo sapiens) (UniProt P14867); experiment: Selectivity interaction (Eurofins CEREP Diversity Profile (receptors and ion channels)) EUB0000279b GABRA1; settings: at 10 µM
T1 sequence (whole entry): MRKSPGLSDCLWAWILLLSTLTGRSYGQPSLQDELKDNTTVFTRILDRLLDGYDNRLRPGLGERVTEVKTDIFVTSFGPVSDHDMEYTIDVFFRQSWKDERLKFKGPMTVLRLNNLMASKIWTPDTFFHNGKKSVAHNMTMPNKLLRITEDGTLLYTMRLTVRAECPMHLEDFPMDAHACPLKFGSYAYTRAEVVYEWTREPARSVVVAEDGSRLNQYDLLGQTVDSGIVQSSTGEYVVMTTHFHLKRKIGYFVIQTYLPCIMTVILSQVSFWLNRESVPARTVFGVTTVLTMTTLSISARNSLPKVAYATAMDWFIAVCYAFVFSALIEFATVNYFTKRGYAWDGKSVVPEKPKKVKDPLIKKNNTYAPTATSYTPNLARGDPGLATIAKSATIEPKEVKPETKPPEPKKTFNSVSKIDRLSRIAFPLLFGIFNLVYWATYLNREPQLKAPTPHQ

[6] = biological target: Tyrosine-protein kinase JAK1 (Homo sapiens, UniProt P23458); settings: at 10 µM
Sequence of Tyrosine-protein kinase JAK1 (P23458 whole entry): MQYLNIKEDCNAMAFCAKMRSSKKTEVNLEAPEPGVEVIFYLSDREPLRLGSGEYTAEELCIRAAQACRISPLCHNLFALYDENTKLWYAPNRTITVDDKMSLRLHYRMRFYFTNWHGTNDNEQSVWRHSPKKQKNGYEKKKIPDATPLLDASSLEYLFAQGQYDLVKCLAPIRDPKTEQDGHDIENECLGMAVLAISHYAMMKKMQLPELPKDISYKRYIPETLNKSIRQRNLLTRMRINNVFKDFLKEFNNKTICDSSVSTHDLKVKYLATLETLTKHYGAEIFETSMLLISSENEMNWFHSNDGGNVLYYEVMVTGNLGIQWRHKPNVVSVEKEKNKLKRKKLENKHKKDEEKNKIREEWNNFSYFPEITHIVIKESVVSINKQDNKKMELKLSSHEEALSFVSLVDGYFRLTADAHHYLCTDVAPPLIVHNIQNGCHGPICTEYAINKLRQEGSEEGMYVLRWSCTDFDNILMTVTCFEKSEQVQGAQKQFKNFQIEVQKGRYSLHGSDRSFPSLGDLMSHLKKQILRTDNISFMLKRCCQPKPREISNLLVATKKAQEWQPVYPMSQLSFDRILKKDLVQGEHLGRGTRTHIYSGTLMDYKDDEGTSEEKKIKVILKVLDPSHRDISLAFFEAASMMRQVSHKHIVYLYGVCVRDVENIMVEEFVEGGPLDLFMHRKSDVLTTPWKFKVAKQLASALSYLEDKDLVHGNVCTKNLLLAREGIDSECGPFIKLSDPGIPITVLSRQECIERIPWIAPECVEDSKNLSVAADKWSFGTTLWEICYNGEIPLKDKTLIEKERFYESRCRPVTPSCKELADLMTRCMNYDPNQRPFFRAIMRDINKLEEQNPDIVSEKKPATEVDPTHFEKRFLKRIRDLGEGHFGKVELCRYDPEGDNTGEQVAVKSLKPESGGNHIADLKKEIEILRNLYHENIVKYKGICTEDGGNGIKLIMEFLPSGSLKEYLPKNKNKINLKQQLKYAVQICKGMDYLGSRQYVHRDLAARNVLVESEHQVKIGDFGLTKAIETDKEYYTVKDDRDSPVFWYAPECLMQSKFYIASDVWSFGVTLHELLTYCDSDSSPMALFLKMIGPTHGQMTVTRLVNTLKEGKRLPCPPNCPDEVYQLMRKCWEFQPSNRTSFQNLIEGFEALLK

[7] = biological target: T2, Ephrin type-B receptor 6 (Homo sapiens) (UniProt O15197); experiment: Selectivity interaction (KinomeScan (DiscoverX)) EUB0001079a EPHB6; settings: at 1 µM
T2 sequence (whole entry): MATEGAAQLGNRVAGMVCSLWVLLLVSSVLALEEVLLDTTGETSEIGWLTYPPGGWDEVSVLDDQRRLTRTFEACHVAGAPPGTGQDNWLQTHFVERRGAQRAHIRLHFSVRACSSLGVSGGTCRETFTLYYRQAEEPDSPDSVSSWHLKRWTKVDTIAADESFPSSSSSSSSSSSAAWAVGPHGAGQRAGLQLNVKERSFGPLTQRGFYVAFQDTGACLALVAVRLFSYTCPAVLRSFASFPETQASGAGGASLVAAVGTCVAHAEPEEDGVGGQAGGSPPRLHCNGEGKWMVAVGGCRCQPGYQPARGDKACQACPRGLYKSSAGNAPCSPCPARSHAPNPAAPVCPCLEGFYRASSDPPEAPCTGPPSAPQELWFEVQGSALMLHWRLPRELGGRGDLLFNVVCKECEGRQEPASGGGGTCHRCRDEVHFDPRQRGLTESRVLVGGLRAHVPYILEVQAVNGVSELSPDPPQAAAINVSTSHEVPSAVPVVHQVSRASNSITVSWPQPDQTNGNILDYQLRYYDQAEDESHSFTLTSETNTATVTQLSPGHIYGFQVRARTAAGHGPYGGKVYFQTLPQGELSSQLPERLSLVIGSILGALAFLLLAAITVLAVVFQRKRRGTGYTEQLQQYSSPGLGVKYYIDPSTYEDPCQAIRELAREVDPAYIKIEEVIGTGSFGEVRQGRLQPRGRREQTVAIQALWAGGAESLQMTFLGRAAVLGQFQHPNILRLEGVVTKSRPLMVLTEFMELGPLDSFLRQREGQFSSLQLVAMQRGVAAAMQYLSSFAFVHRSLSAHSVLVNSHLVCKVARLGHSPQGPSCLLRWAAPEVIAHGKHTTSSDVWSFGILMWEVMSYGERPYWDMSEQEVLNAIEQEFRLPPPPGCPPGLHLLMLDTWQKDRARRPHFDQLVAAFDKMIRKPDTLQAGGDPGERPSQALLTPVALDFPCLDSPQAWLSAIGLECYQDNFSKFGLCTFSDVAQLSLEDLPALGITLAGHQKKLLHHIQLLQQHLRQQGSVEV

[8] = biological target: T3, Serine/threonine-protein kinase Sgk1 (Homo sapiens) (UniProt O00141); experiment: Selectivity interaction (ProQinase) EUB0000171b SGK1
T3 sequence (whole entry): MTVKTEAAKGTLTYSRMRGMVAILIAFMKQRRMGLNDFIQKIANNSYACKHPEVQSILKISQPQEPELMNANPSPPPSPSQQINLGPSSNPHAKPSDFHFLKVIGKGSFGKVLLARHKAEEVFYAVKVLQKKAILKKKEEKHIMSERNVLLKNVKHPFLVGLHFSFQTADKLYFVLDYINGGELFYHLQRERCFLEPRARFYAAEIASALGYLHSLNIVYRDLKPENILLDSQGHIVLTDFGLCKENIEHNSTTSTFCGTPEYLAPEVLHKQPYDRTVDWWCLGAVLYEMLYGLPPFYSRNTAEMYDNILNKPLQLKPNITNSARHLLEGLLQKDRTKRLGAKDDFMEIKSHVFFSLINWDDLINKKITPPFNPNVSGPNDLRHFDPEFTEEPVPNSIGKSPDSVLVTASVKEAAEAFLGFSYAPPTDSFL

[9] = biological target: 5-hydroxytryptamine receptor 2B (Homo sapiens, UniProt P41595); experiment: Selectivity interaction (GPCR panel (PDSP screen)) EUB0000311b HTR2B; settings: at 10 µM
Sequence of 5-hydroxytryptamine receptor 2B (P41595 whole entry): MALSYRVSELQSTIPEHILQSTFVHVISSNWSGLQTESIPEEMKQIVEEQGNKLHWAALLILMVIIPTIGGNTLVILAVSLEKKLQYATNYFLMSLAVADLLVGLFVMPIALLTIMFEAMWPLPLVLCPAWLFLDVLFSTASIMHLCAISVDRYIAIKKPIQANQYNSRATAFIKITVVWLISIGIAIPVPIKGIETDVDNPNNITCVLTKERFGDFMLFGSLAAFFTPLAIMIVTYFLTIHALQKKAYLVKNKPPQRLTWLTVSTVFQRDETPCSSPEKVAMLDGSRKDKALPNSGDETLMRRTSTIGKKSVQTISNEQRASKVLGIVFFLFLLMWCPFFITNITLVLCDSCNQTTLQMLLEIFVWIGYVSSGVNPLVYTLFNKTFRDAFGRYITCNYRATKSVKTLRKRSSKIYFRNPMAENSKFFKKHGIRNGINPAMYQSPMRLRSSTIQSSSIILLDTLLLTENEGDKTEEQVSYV

Sequence of Casein kinase I isoform delta (P48730 whole entry, looked up, canonical isoform): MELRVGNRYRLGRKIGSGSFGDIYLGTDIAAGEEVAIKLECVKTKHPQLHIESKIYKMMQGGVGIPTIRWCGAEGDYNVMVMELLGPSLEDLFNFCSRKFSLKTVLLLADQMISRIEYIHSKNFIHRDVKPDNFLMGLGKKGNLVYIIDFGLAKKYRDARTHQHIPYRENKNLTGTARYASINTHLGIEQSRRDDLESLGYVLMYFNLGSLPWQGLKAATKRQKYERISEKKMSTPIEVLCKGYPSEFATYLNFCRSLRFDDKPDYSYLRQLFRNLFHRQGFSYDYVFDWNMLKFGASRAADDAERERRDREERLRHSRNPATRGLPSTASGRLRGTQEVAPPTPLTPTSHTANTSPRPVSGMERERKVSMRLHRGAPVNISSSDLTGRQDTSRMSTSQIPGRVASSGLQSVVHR
Sequence of Histone-lysine N-methyltransferase KMT5B (Homo sapiens) (Q4FZB7 whole entry, looked up): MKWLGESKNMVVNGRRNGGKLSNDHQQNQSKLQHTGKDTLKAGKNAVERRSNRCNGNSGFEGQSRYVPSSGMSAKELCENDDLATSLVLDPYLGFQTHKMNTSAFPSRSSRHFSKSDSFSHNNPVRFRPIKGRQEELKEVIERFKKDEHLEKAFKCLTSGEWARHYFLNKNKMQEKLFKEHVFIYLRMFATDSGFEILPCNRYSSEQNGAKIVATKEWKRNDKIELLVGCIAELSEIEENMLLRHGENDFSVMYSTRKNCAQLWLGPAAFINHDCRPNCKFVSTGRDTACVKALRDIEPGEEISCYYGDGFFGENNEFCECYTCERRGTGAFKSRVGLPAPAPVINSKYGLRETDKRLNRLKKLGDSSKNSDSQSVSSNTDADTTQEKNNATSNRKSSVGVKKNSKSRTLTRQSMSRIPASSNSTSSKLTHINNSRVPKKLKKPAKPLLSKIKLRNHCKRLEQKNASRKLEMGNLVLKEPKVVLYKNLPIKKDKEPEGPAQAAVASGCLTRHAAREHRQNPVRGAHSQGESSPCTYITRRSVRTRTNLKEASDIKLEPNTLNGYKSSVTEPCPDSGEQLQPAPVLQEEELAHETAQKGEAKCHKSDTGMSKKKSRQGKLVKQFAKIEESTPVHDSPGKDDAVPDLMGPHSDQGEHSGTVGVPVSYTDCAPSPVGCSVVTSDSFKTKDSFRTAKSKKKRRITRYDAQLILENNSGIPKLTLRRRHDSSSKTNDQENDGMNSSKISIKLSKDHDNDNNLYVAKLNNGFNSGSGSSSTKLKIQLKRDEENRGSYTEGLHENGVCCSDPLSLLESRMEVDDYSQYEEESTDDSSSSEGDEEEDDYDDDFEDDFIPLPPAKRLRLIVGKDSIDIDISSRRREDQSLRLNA

SMILES: Cc1cc([C@@H](C)Nc2ccccc2C(=O)O)c2nc(N3CCOCC3)cc(=O)n2c1 [AZD-6482]
% of control [1]: 86% | % of control [2]: 100%

% activity [3]: > 90%
SMILES: CNCCN1CCC(c2cc(CN(C)C(=O)c3cccc(Oc4ccccc4)c3)ccn2)CC1

SMILES: Cc1cc(F)c(C(=O)Nc2cccc(-c3nncn3C(C)C)n2)cc1-n1cnc(C2CC2)c1
% of control [4]: 73%

% of control [5]: 103%
SMILES: CC(=O)c1cc(-c2ccccc2OCC2CC2)c2ncccn12

% of control [6]: 100%
SMILES: CCN(CC)CCCCNc1ncc2cc(-c3cc(OC)cc(OC)c3)c(NC(=O)NC(C)(C)C)nc2n1

SMILES: Nc1cnc(N2CCc3cc(S(=O)(=O)Nc4c(F)cc(Cl)cc4F)cc(N4CCCC4=O)c32)nc1 [TP-020n]
% of control [7]: 100%

% of control ([8]; at 1 µM): 49% | % of control ([8]; at 5 µM): 15%
SMILES: C=CC(=O)Nc1cccc(C(=O)Nc2ccc(Nc3cc(-c4[nH]c(SC)nc4C)ccn3)cc2)c1

% of inhibition [9]: 32.5%
SMILES: CCc1ccccc1C(=O)Nc1n[nH]c2c(C)c(F)c(C3C(C#N)=C(C)N(C)C(C)=C3C#N)cc12 [BAY-3827]
